Literature values, collected in patent US7390922B2, “Phenolic acid salts of gabapentin in liquid and/or semi-solid dosage forms and methods of use” (Kiel Laboratories, Inc., priority 2003, dated 2008).

How the values were obtained:
[1] = molecular target: gb1a-gb^2 heterodimer and post-synaptic GABAB receptor (Homo sapiens, UniProt Q9UBS5)
[2] = in water and across a wide range of pH

Sequence of gb1a-gb^2 heterodimer and post-synaptic GABAB receptor (Q9UBS5 15-961 limits assumed): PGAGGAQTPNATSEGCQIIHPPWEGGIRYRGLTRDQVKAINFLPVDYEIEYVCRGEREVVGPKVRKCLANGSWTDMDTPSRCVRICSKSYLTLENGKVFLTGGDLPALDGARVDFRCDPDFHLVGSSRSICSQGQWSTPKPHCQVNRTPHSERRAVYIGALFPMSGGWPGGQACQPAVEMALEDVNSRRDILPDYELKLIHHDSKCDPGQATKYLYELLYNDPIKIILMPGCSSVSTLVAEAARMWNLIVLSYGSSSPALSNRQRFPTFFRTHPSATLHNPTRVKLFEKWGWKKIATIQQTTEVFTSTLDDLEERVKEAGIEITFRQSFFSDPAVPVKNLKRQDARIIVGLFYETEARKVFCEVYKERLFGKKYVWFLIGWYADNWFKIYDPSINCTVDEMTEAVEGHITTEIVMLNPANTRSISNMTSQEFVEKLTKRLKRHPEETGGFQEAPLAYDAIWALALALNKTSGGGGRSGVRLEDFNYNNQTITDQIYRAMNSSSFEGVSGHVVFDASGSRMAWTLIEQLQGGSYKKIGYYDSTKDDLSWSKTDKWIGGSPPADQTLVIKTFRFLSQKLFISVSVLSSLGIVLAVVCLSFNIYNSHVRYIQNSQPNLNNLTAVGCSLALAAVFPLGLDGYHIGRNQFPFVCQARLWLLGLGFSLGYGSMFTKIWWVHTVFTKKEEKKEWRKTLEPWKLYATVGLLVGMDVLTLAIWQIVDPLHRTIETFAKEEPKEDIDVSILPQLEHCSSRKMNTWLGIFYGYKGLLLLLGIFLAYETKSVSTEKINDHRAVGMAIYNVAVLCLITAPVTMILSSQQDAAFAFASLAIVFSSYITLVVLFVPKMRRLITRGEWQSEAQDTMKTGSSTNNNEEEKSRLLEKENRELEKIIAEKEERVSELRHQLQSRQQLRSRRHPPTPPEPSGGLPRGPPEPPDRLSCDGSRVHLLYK
Sequence of gb1a-gb^2 heterodimer and post-synaptic GABAB receptor (O75899 42-941 partner): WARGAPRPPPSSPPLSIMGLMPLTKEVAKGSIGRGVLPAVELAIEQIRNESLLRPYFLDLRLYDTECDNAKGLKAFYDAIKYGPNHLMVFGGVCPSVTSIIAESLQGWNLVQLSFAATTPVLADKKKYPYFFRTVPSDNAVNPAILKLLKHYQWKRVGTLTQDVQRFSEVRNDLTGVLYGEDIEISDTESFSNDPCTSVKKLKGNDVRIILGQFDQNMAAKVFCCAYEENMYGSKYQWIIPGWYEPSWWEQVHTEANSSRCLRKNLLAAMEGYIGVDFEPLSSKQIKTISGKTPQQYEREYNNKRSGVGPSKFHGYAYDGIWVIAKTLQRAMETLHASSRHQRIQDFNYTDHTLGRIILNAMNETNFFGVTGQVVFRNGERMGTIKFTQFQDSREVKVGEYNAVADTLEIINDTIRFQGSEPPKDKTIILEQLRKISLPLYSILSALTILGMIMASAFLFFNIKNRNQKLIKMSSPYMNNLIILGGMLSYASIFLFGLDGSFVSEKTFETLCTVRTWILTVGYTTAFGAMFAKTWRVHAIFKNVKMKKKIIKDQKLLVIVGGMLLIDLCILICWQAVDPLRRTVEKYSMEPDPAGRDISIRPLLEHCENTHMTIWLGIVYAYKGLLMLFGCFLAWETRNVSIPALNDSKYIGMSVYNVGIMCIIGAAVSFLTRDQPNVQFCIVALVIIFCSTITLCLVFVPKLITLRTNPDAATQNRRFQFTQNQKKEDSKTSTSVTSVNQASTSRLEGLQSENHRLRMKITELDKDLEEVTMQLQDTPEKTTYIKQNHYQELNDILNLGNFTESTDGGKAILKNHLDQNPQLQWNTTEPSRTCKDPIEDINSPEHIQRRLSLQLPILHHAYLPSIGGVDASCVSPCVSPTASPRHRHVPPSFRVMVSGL

In the case of `NCC1(CC(=O)O)CCCCC1` [gabapentin, l-(amino methyl) cyclohexaneacetic acid], the receptor activity [1] is given as “selective agonist”, the solubility [2] is given as “freely soluble in water” and the “time of peak plasma gabapentin concentrations” value (adults, post-dose) is given as 2 to 3 h. For the same compound, the absolute bioavailability (after administration of 300 mg, dose-dependent) was “approximately 60%”, the metabolism (in vivo) was “is not metabolized” and the plasma protein binding (in vivo) was “does not bind to plasma proteins”. For the same compound, the route of elimination (in vivo) was “eliminated via glomerular filtration” and the blood-brain barrier passage (unlike GABA) was “able to cross the blood-brain barrier”.
